What was measured:
[1] = test system: LDL receptor knockout mice NASH model; assay: Western diet-fed LDL receptor knockout mice NASH model; assay type: in vivo; conditions: 12 weeks, vs control
From the text: Effects on Western diet-fed LDL receptor knockout mice (Non Patent Document 4), which are known to develop fatty liver and hepatic inflammation, characteristic symptoms of NASH were examined. […] Male LDL receptor knockout mice ([…], Jackson Laboratories) were used in the experiment. Beginning at around 8 weeks of age, the mice were freely fed with Teklad Custom Research Diet (TD.88137, Harlan Teklad) as a Western diet for 13 weeks to develop NASH. • 2) Grouping: After 1 week of the Western diet feeding, the mice were subjected to blood sampling and weighing. The mice were divided into a control group (0.5% methyl cellulose aqueous solution), a Compound A 0.5 mg/kg administration group, and a fenofibrate 100 mg/kg administration group in such a way that there was no difference in plasma lipid level and weight between the groups. […] The administration period was 12 weeks. After the administration was completed, the livers were removed from the mice under pentobarbital sodium (50 mg/kg) anesthesia. The livers were fixed with paraformaldehyde and then subjected to the preparation of hematoxylin-eosin stained samples and immunostained samples for CD68 detection. In a blind study setting, using the hematoxylin-eosin stained samples, ballooning of hepatocytes was scored based on the following criteria (Kleiner et al. Hepatology 41, 1313-21, 2005). No balloon cells: 0 Few balloon cells: 1 Many balloon cells or ballooning: 2 The CD68 positive area in liver was measured with an image analysis system (WinROOF) in a blind study. The statistical analysis was performed using Stat […] Information Technology Inc.) (Ver. 1.1). Dunnett's test (N=14-15) was used for comparison with the control group, in which a significant difference with p<0.05 is indicated by the symbol *, and a significant difference with p<0.001 is indicated by the symbol ***.

[2] = test system: KK-A^y mice fed with an MCD diet; assay: NASH model using KK-A^y mice fed with methionine-choline-deficient diet; assay type: in vivo; conditions: Compound A 0.25 mg/kg mixed in MCD diet (0.00026%), 16 weeks; scale 0 to 3
Method: Effects on experimental animals, KK-A^y mice fed with a methionine-choline-deficient diet (MCD diet), which are known to develop fatty liver, a characteristic symptom of NASH (Nakano S. et al., Hepatol Res., 38(10), 1026-39, 2008) were examined.
As in Example 1, this experiment was conducted using (R)-2-[3-[[N-(benzoxazol-2-yl)-N-3-(4-methoxyphenoxy)propyl ]aminomethyl]phenoxy]butyric acid (Compound A), which is disclosed as Example 85 in Patent Document 1 listed above.
Male KK-A^y mice (KK-A^y/TaJc1, CLEA Japan, Inc.) were used in the experiment. Beginning at around 12 weeks of age, the mice were freely fed with an MCD diet for 16 weeks to develop NASH. • 2) Grouping:
The mice were divided into a normal diet group, a control group (fed with an MCD diet), a Compound A 0.25 mg/kg administration group, and a bezafibrate 60 mg/kg administration group in such a way that there was no difference in weight between the groups. • 3) Drug administration:
The doses were mixed in the feed. The control group was fed with an MCD diet containing no drug. […]
After the administration was completed, the livers were removed from the mice under pentobarbital sodium (50 mg/kg) anesthesia. […] Depending on the grade, the fatty liver was scored on a scale of 0 to 3 based on the following criteria. […]

Row | SMILES | CD68 positive area in liver, reduction rate ([1]; fenofibrate 100 mg/kg orally once a day) [%] | steatosis score [2] | CD68 positive area in liver, reduction rate ([1]; Compound A 0.5 mg/kg orally once a day) [%] | ballooning of hepatocytes (score) ([1]; Compound A 0.5 mg/kg orally once a day, Dunnett's test)
1 | CC(C)OC(=O)C(C)(C)Oc1ccc(C(=O)c2ccc(Cl)cc2)cc1 [fenofibrate, reference compound] | 73 |  |  | 
2 | CC[C@@H](Oc1cccc(CN(CCCOc2ccc(OC)cc2)c2nc3ccccc3o2)c1)C(=O)O [Compound A, (R)-2-[3-[[N-(benzoxazol-2-yl)-N-3-(4-methoxyphenoxy)propyl]aminomethyl]phenoxy]butyric acid] |  | 0 | 81 | significant suppression of ballooning of hepatocytes

Source: patent publication US20160136138A1, “DRUG FOR TREATMENT OF NONALCOHOLIC FATTY LIVER DISEASE” (KOWA COMPANY, LTD., priority 2013, published 2016)
